Consider five molecules from BindingDB's records for doi:10.1021/jm030233b (Pharmacia, 2003).

A word on the IC50: it is the concentration at which inhibition is half-maximal.

In this assay the target is Prothrombin (Homo sapiens, UniProt P00734). Briefly: Thrombin Assay. The settings on record: pH 8; 22 °C.

Description: Human thrombin and substrate were added to a 96-well assay plate containing inhibitor in reaction buffer. […] All compounds were assayed in duplicate at seven concentrations. Percent inhibition at each concentration was calculated from OD405nm value from the experimental and control sample. IC50 values were calculated from a four-parameter logistic regression equation.

Molecule `N=C(N)c1ccc(CNC(=O)Cc2c(-c3cccc(N)c3)ccc(NCc3ccccc3)c2F)cc1` [2-[6-(3-aminophenyl)-3-(benzylamino)-2-fluorophenyl]-N-[(4-carbamimidoylphenyl)methyl]acetamide] had an IC50 of 10 µM. This counts as double-digit micromolar.
To `N=C(N)c1ccc(CNC(=O)Cc2c(F)ccc(NS(=O)(=O)Cc3ccccc3)c2F)cc1` [N-[(4-carbamimidoylphenyl)methyl]-2-[2,6-difluoro-3-(phenylmethanesulfonamido)phenyl]acetamide] belongs 26.9 µM; to `CC(C)=Nc1cc(O)c(-c2ccccc2)c(CC(=O)NCc2ccc(C(=N)N)cc2)c1O` [N-[(4-carbamimidoylphenyl)methyl]-2-[3,6-dioxo-2-phenyl-5-(propan-2-ylamino)cyclohexa-1,4-dien-1-yl]acetamide], greater than 30 µM; to `N=C(N)c1ccc(CNC(=O)Cc2c(F)ccc(NCCc3ccccc3)c2F)cc1` [N-[(4-carbamimidoylphenyl)methyl]-2-{2,6-difluoro-3-[(2-phenylethyl)amino]phenyl}acetamide], 1.56 µM.
As to `N=C(N)c1ccc(CNC(=O)Cc2c(-c3ccccc3)ccc(NCCc3ccccc3)c2O)cc1` [N-[(4-carbamimidoylphenyl)methyl]-2-{2-hydroxy-6-phenyl-3-[(2-phenylethyl)amino]phenyl}acetamide], it took 6.8 µM to reach half-maximal inhibition (IC50).
